Results taken from paper PMC10537410 (Pharmaceutics, 2023).

Assay: In vitro dissolution in simulated lung fluid
Format: physicochemical
Details: simulated lung fluid with 0.01% w/v DPPC, ca. 2 mg CsA in 100 mL, 100 r/min, 37 °C, HPLC; n = 3
Method: In vitro dissolution was carried out in simulated lung fluid. Simulated lung fluid was prepared with some modifications according to the literature. The composition of simulated lung fluid included NaCl (6.40 g/L), CaCl2·2H2O (0.26 g/L), Na2HPO4 (0.15 g/L), NaHCO3 (2.70 g/L), NH4Cl (0.12 g/L), MgCl2 (0.10 g/L), Na2SO4·10H2O (0.18 g/L), Na3citrate·2H2O (0.16 g/L), Glycine (0.19 g/L), and dipalmitoylphosphatidylcholine (0.01% w/v). Raw CsA and formulation (ca. 2 mg CsA) were dispersed in 100 mL dissolution medium and placed in a magnetic stirrer (MR Hei-Tec, Heidolph, Germany) maintained at 100 r/min and 37 °C. At predetermined intervals, suspensions (0.5 mL) were withdrawn and centrifuged. The supernatants were diluted with 0.5 mL of ethanol and determined by the HPLC method, as described in Section 2.3.

Which “Release amount within 24 h” value does the source give for Cyclosporine A [raw CsA] here?
Its value is no more than 24%.
